Test results reported in PubChem BioAssay (NCI).
Where “and” joins values, the source holds several entries; their conditions need not be identical. Equal values may be shown once.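 Five concentrations, 48 hours, 96-well plates. The concentration for 50% growth inhibition is given as GI50. TGI is the concentration that stops growth completely.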

Assays:
Assay in all cases: DTP human tumour cell line panel, 48 h
A498 renal = test system: A498 renal
BT-549 breast = test system: BT-549 breast
HOP-92 NSCLC = test system: HOP-92 NSCLC
HS 578T breast = test system: HS 578T breast
M14 melanoma = test system: M14 melanoma
MOLT-4 leukemia = test system: MOLT-4 leukemia
NCI-H226 lung = test system: NCI-H226 lung
OVCAR-5 ovarian = test system: OVCAR-5 ovarian
SNB-19 CNS = test system: SNB-19 CNS
SW-620 colon = test system: SW-620 colon

| Compound | GI50 (A498 renal) | TGI (A498 renal) [µM] | GI50 (BT-549 breast) [µM] | TGI (BT-549 breast) [µM] | GI50 (HOP-92 NSCLC) [µM] | TGI (HOP-92 NSCLC) [µM] | GI50 (HS 578T breast) | TGI (HS 578T breast) [µM] | GI50 (M14 melanoma) | TGI (M14 melanoma) [µM] | GI50 (MOLT-4 leukemia) | TGI (MOLT-4 leukemia) [µM] | GI50 (NCI-H226 lung) [µM] | TGI (NCI-H226 lung) [µM] | GI50 (OVCAR-5 ovarian) | TGI (OVCAR-5 ovarian) [µM] | GI50 (SNB-19 CNS) | TGI (SNB-19 CNS) [µM] | GI50 (SW-620 colon) | TGI (SW-620 colon) [µM] |
| --- | --- | --- | --- | --- | --- | --- | --- | --- | --- | --- | --- | --- | --- | --- | --- | --- | --- | --- | --- | --- |
| Nc1nonc1-c1nc2ccccc2n1Cc1ccc(F)cc1 | 2.2 µM | > 100 | 9.8 | > 100 | 4.04 | 36.7 | 3.18 µM | > 100 | 4.64 µM | > 100 | 5.5 µM | > 100 | > 100 | > 100 | > 100 µM | > 100 | 14.6 µM | > 100 | 3.54 µM | > 100 |
| c1ccc(CN2CCc3[nH]c4ccccc4c3C2)cc1 |  | 88.1 |  | > 100 |  | 62.1 |  | 79.9 |  | 33.1 |  | 66.1 |  | > 96.8 |  | > 96.3 |  | > 95.7 |  | 50 |
| C=CC(COC(=O)C(C)(C)OC(C)=O)c1ccc(OC(=O)C(C)C)c(OC)c1 (stereo unspecified) |  | 37.7 |  | 22.5 |  | 11.7 |  | 50.8 |  | 21.8 |  | 20.6 |  | 49.9 |  | 32.5 |  | 23.2 |  | 52.8 |
| Cc1ccc(S(=O)(=O)OCC#CCOS(=O)(=O)c2ccc(C)cc2)cc1 | 4.34 µM | 11.7 | 4.57 | 9.68 | 1.97 | 4.17 | 2.75 µM | 14.2 | 2.59 µM | 7.65 | 2.39 µM | 7.81 | 5.83 | 12.9 | 4.99 µM | 14.5 | 7.11 µM | 22.2 | 1.8 µM | 3.96 |
| CNC(=O)c1cc(Oc2cccc3nc(NC(=O)Nc4cc(C(F)(F)F)cc(C(F)(F)F)c4)ccc23)ccn1 | 1.99 µM | 5.02 | 11.4 | 55.6 | 2.5 | 6.27 | 2.57 µM | 13.5 | 10.2 µM | 62.8 | 35.9 µM | > 100 | 4.21 | 39.8 | 13.3 µM | > 100 | 5.31 µM | 38 | 16.9 µM | > 100 |
| C[N+](C)(C)CC1CCC(C[N+](C)(C)C)C1=O (stereo unspecified) |  | 21.9 |  | 30.7 |  | 2.28 |  | 91.5 |  | 3.35 | 0.25 µM | 0.801 |  | 23.3 |  | 14.4 |  | 33.5 | 1.18 µM | 2.86 |
| O=C1CC[C@H](N2Cc3c(OCc4ccc(CN5CCOCC5)cc4)cccc3C2=O)C(=O)N1 | > 100 µM | > 100 | 98.9 | > 100 | > 100 | > 100 | > 100 µM | > 100 | > 100 µM | > 100 | > 100 µM | > 100 | > 100 | > 100 | > 100 µM | > 100 | > 100 µM | > 100 | > 100 µM | > 100 |
| N#Cc1ccc(-c2c(-c3ncn[nH]3)sc(N3CCOCC3)c2C#N)c(F)c1 | 0.0225 µM | 0.206 | 3.84 | 39.2 | 0.0663 | 0.973 | 0.381 µM | 4.85 |  |  | 0.484 µM | 27.6 | 1.83 | 86.3 | 0.455 µM | 10.5 | 1.96 µM | 38.9 | 2.94 µM | 29.9 |
| CC1=C(/C=C/C(=O)CC(=O)/C=C/C2=C(C)CCCC2(C)C)C(C)(C)CCC1 | 51.7 µM | > 100 | 33.9 | > 100 | 28 | > 100 | 14.7 µM | 68.4 | 47.7 µM | > 100 | 6.51 µM | 32.6 | 23.3 | > 100 | 77 µM | > 100 | 33.2 µM | > 100 | 25.7 µM | > 100 |
| C=C1c2ccccc2C(=O)c2c1c1c(C(=O)OC)c(OC(=O)OCc3ccc([N+](=O)[O-])cc3)ccc1n2Cc1ccccc1 | 65.5 µM | > 100 | 3.21 | 9.48 | 2.29 | 7.59 | 4.69 µM | > 100 | 27.6 µM | > 100 | 2.6 µM | 11.6 | 19.6 | 44.1 | 17.7 µM | 49.5 | 20.3 µM | 80.9 | 5.63 µM | > 100 |
| CCOC(=O)Nc1nc2ccccc2[nH]1 | 2.42 µM and 3.81 µM | > 28.8 | 6.03 | > 100 | > 100 | > 100 | 4.3 µM and 3.48 µM | > 100 | 3.48 µM and 3.43 µM | > 100 | 4.57 µM and 5 µM | > 100 |  | > 100 | 15.8 µM and > 26.1 µM | > 100 | 10.5 µM and 4.83 µM | > 100 | 3.9 µM and 3.17 µM | > 100 |
| O=S(=O)(NCCNc1nccc(-c2c(-c3ccc(F)c(O)c3)nc3sccn23)n1)c1ccc(Cl)cc1 | 1.63 µM | 11.7 | 1.65 | 14 | 2.39 | 13.8 | 1.26 µM | 13.3 |  |  |  |  | 1.8 | 18.4 | 7.31 µM | > 50 | 3.35 µM | 11.3 | > 50 µM | > 50 |
| Nc1ccccc1C#C/C=C\C#CC#C/C=C\C#Cc1ccccc1N | 5.36 µM | 20.6 | 5.03 | 25.9 | 1.77 | 8.35 | 12.4 µM | 56.7 |  |  | 1.01 µM | 18.4 | 3.56 | 27.2 | 14.9 µM | 42.1 | 16.2 µM | 64.8 | 7.54 µM | 30.7 |
| COc1ccc(C(C)c2cc(OC)c(OC)c(OC)c2)cc1 (stereo unspecified) | 0.125 µM | > 50 | 0.223 | > 50 | 3.6 | > 50 | 0.244 µM | > 50 |  |  | 0.264 µM | > 50 | 46.5 | > 50 | 0.291 µM | > 50 | 0.221 µM | > 50 | 0.0581 µM | > 50 |
